Source: patent US20030018071A1, “Method and compositions for treating fibrotic diseases” (priority 2002, published 2003)
Converted amounts (≈) assume the structure as drawn.

What was measured:
[1] = developed as an antidepressant; cited from earlier work
[2] = tested on: human fetal lung fibroblasts; experiment: Fibroblast chemotaxis toward fibronectin (Boyden blindwell chamber); assay type: cell-based
Method: Since the activity of a PDE4 inhibitor should be dependent on endogenous cyclic AMP levels, a study was designed to determine if endogenous prostaglandin production rendered cells susceptible to the effects of Ariflo. To accomplish this, human fetal lung fibroblasts were cultured and, after achieving confluence, were incubated for 60 minutes with and without indomethacin (2×10^−6 M) to inhibit cyclooxygenase. Fibroblasts were then trypsinized and placed in the upper portion of a Boyden blindwell chemotaxis chamber. Fibronectin, 20 μg/ml, was placed in the lower portion of the chamber as the chemoattractant. Indomethacin (2×10^−6 M) was added to the upper side of the chemotaxis chamber. […] In three separate experiments, the concentration of Ariflo required to inhibit chemotaxis by 50% was 4.9±2.5 μg/ml. In the presence of indomethacin, Ariflo inhibited chemotaxis only at the highest concentration tested 10 μg/ml reducing the response to 58.7±21.0% of control (p<005) compared to indomethacin. […] Since cyclooxygenase activity and prostaglandin production can be modulated by a variety of mediators present in an inflammatory milieu, fibroblasts in such a setting may be particularly sensitive to the inhibitory effects of Ariflo. Such an effect has therapeutic value in fibrotic disorders.

COc1ccc(C2CNC(=O)C2)cc1OC1CCCC1 (centres unmarked) [rolipram]
side effects in clinical studies [1]: has psychotropic activity and produces gastrointestinal effects, e.g., pyrosis, nausea and emesis

COc1ccc2c(c1)c(CC(=O)O)c(C)n2C(=O)c1ccc(Cl)cc1 [Indomethacin, indomethacin, reference compound]
chemotaxis, % compared to control ([2]; indomethacin alone 2×10^−6 M, fibronectin 20 μg/ml): 159±33%

COc1ccc([C@]2(C#N)CC[C@@H](C(=O)O)CC2)cc1OC1CCCC1 [Ariflo, cis 4-cyano-4-(3-cyclopentyloxy-4-methoxyphenyl)cyclohexan-1-carboxylic acid]
activity at 10 µg/mL ([2]; Homo sapiens, Fibroblast, Ariflo 10 μg/ml in the presence of indomethacin 2×10^−6 M, compared to indomethacin, read-out: chemotaxis response, % of control): 58.7 ± 21% | IC50 ([2]; Homo sapiens, Fibroblast, control fibroblasts (no indomethacin), fibronectin 20 μg/ml as chemoattractant, three separate experiments, read-out: concentration required to inhibit chemotaxis by 50%): 4.9 ± 2.5 µg/mL (≈ 14.3 µM) | effect on chemotaxis (in words) ([2]; added to control fibroblasts): inhibited chemotaxis in a concentration dependent manner
